ChEMBL document CHEMBL4431321, “Profiling of Flavonol Derivatives for the Development of Antitrypanosomatidic Drugs” (J Med Chem, 2016)
Calls of active or inactive are those of the source. The calls are words filed in the database; no cut-off is given here.

Experiments:
WI-38 = assay: Cytotoxicity against human WI38 cells at 100 uM after 48 hrs by cell titer glo assay; type: cell-based; conditions: wi-38, 48 h
Trypanosoma brucei [1] = assay: Inhibition of Trypanosoma brucei PTR1 at 50 uM using H2B as substrate incubated for 10 mins followed by addition of NADPH measured for 10 to 50 mins
[2] = system: Trypanosoma brucei brucei; assay: Antitrypanosomal activity against Trypanosoma brucei brucei Lister 427 bloodstream forms assessed as synergy coefficient at 2.5 to 5 uM after 72 hrs in presence of MTX by resazurin-based assay; type: functional
[3] = target: Thymidylate synthase (Homo sapiens) (UniProt P04818); assay: Inhibition of human thymidylate synthase at 50 uM using folic aid as substrate by spectrophotometric analysis
Thymidylate synthase (Homo sapiens), sequence (P04818 2-313 limits assumed): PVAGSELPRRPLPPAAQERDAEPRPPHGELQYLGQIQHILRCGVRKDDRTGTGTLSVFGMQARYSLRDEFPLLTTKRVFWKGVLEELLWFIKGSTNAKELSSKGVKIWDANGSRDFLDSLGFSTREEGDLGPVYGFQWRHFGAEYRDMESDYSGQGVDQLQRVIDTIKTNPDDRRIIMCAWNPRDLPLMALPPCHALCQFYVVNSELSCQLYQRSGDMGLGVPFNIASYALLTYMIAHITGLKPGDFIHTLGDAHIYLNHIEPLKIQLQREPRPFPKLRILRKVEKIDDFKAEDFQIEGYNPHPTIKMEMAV

[4] = system: Trypanosoma brucei brucei; assay: Antitrypanosomal activity against Trypanosoma brucei brucei Lister 427 bloodstream forms at 10 uM after 72 hrs by resazurin-based assay; type: functional, organism-based
[5] = system: Trypanosoma brucei brucei; assay: Antitrypanosomal activity against Trypanosoma brucei brucei Lister 427 bloodstream forms after 72 hrs by resazurin-based assay; type: functional, organism-based; conditions: Lister 427, 72 h
[6] = system: Trypanosoma brucei brucei; assay: Antitrypanosomal activity against Trypanosoma brucei brucei Lister 427 bloodstream forms assessed as synergy coefficient at 1.25 to 5 uM after 72 hrs in presence of MTX by resazurin-based assay; type: functional
in vitro = conditions: human, THP-1 cells
Description: Selectivity index, ratio of CC50 for human THP1 cells to EC50 for Trypanosoma brucei brucei Lister 427 bloodstream forms

786-0 = assay: Mitochondrial toxicity in human 786-O cells incubated for 6 hrs by mitotracker red staining based-uptake method; type: cell-based; conditions: 786-0, 6 h
A549 = assay: Cytotoxicity against human A549 cells at 100 uM after 48 hrs by cell titer glo assay; type: cell-based; conditions: a549, 48 h
Leishmania mexicana [7] = assay: Inhibition of Leishmania mexicana DHFR at 50 uM using folic aid as substrate by spectrophotometric analysis
Trypanosoma brucei [8] = assay: Inhibition of Trypanosoma brucei DHFR at 50 uM using folic aid as substrate by spectrophotometric analysis
[9] = Cytotoxicity against human THP1 cells after 72 hrs by MTT assay; type: cell-based; conditions: THP-1 cells; for MNTC at 72 h: read-out: NOAEL
Cytochrome P450 1A2 [10] = target: T1, Cytochrome P450 1A2 (Homo sapiens, UniProt P05177); assay: (§1) Inhibition of human microsomal CYP1A2 expressed in baculovirus infected BTI-TN-5B1-4 cells at 10 uM incubated for 30 mins by luciferase assay; type: ADME; conditions: bti-tn-5b1-4, 0.5 h, 10 µM
T1 sequence (P05177 whole entry): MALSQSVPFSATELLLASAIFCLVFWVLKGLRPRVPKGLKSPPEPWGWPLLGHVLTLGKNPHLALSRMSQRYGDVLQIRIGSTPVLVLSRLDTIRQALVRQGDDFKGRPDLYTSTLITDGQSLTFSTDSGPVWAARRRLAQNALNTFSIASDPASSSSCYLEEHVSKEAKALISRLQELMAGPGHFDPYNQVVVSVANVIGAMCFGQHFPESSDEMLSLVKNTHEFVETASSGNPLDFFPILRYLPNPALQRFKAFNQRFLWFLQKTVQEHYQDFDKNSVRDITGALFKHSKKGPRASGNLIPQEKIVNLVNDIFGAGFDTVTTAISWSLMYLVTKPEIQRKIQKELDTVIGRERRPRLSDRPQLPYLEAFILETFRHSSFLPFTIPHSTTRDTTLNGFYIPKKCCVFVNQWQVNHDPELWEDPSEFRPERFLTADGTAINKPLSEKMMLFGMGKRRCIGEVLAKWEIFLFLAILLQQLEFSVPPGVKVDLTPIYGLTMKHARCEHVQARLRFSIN

[11] = target: T2, Dihydrofolate reductase (Homo sapiens) (UniProt P00374); assay: Inhibition of human DHFR at 50 uM using folic aid as substrate by spectrophotometric analysis
T2 sequence (whole entry): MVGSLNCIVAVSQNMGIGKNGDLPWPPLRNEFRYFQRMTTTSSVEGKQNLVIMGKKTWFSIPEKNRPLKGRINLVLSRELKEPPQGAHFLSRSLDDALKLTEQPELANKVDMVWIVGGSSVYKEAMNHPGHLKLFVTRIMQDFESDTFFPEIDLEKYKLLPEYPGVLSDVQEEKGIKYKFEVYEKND

Trypanosoma brucei [12] = assay: (§2) Inhibition of Trypanosoma brucei PTR1 using H2B as substrate incubated for 10 mins followed by addition of NADPH measured for 10 to 50 mins
[13] = Drug uptake in NMRI mouse plasma at 4 mg/kg, po administered with cyclodextrins by HPLC analysis; type: ADME, organism-based; conditions: in vivo
[14] = Cytotoxicity against human THP1 cells compound treated through encapsulation in PLGA nanoparticles after 72 hrs by MTT assay; type: cell-based; conditions: THP-1 cells, read-out: NOAEL
[15] = system: Trypanosoma brucei brucei; assay: Antitrypanosomal activity against Trypanosoma brucei brucei Lister 427 bloodstream forms compound treated with cyclodextrins after 72 hrs by resazurin-based assay; type: functional, organism-based; conditions: Lister 427, 72 h
Cytochrome P450 2C19 = Cytochrome P450 2C19 (Homo sapiens, UniProt P33261); assay: Inhibition of human microsomal CYP2C19 expressed in baculovirus infected BTI-TN-5B1-4 cells incubated for 30 mins by luciferase assay; type: ADME
Cytochrome P450 2C19, sequence (P33261 whole entry): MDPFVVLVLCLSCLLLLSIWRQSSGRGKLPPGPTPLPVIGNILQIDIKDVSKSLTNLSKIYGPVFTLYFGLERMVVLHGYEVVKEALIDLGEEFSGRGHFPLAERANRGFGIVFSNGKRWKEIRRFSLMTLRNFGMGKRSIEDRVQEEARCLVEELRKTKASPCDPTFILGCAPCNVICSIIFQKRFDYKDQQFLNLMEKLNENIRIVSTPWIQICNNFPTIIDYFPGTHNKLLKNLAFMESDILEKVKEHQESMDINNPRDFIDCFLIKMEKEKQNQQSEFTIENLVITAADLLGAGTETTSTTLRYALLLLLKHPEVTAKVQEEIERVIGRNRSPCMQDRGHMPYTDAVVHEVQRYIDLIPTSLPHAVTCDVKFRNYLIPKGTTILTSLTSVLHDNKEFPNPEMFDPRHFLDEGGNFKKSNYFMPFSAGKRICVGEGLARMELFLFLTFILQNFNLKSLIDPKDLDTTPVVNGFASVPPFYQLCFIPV

Cytochrome P450 1A2 [16] = target: T1, Cytochrome P450 1A2; assay: Inhibition of human microsomal CYP1A2 expressed in baculovirus infected BTI-TN-5B1-4 cells incubated for 30 mins by luciferase assay; type: ADME
[17] = as §2
[18] = Half life BALB/c mouse blood at 1 mg/kg, iv administered as single dose by HPLC analysis; type: ADME, organism-based
Leishmania mexicana [19] = assay: Inhibition of Leishmania mexicana PTR1 at 50 uM using H2B as substrate incubated for 10 mins followed by addition of NADPH measured for 10 to 50 mins
Cytochrome P450 2D6 = Cytochrome P450 2D6 (Homo sapiens, UniProt P10635); assay: Inhibition of human microsomal CYP2D6 expressed in baculovirus infected BTI-TN-5B1-4 cells incubated for 30 mins by luciferase assay; type: ADME
Cytochrome P450 2D6, sequence (P10635 whole entry): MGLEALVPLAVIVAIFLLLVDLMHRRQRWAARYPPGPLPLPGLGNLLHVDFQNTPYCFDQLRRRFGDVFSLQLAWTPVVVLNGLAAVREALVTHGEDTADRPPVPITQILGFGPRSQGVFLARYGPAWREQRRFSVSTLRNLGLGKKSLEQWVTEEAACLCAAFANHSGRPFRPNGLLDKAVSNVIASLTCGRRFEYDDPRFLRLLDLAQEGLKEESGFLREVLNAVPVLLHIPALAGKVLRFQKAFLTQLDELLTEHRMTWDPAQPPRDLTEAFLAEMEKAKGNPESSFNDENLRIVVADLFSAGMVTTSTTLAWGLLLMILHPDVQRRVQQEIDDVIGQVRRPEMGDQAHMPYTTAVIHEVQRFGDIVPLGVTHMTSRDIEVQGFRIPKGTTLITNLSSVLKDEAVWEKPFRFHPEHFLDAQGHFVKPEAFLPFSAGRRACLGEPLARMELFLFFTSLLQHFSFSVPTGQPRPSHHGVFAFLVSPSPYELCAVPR

Cytochrome P450 3A4 = Cytochrome P450 3A4 (Homo sapiens, UniProt P08684); assay: Inhibition of human microsomal CYP3A4 expressed in baculovirus infected BTI-TN-5B1-4 cells incubated for 30 mins by luciferase assay; type: ADME
Cytochrome P450 3A4, sequence (P08684 whole entry): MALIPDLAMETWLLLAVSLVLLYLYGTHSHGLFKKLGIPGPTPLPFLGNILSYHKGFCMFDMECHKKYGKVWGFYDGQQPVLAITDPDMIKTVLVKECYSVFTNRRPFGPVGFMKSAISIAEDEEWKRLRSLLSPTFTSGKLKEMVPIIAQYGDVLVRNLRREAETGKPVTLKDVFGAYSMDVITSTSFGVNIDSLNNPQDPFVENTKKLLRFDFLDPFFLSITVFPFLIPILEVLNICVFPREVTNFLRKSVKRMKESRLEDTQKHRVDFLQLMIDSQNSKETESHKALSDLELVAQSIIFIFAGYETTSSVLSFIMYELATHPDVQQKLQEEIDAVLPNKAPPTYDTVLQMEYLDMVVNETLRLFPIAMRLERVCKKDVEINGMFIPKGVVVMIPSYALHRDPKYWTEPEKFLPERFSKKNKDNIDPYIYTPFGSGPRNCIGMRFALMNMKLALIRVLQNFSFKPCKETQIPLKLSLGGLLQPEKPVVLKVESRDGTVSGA

Cytochrome P450 2C9 = Cytochrome P450 2C9 (Homo sapiens, UniProt P11712); assay: Inhibition of human microsomal CYP2C9 expressed in baculovirus infected BTI-TN-5B1-4 cells incubated for 30 mins by luciferase assay; type: ADME
Cytochrome P450 2C9, sequence (P11712 whole entry): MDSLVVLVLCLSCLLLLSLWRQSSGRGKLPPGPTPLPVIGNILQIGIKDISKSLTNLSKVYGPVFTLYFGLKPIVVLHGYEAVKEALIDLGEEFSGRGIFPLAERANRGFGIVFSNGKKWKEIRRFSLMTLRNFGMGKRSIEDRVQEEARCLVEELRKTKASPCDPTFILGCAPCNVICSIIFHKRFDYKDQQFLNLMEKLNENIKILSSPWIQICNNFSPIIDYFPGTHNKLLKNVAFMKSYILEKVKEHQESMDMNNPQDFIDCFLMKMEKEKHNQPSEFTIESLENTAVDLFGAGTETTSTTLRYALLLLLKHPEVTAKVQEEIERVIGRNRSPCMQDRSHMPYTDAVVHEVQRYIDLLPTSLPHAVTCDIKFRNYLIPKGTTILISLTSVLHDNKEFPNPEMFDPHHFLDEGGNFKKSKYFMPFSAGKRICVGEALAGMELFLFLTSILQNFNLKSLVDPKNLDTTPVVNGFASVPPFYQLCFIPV

[20] = Drug uptake in BALB/c mouse blood at 1 mg/kg, iv administered as single dose after 30 mins by HPLC analysis; type: ADME, organism-based; conditions: in vivo, 0.5 h
[21] = system: Trypanosoma brucei brucei; assay: Antitrypanosomal activity against Trypanosoma brucei brucei Lister 427 bloodstream forms compound treated through encapsulation in PLGA nanoparticles after 72 hrs by resazurin-based assay; type: functional, organism-based; conditions: Lister 427, 72 h
[22] = Cytotoxicity against human THP1 cells compound treated with cyclodextrins after 72 hrs by MTT assay; type: cell-based; conditions: THP-1 cells, read-out: NOAEL
Dihydrofolate reductase = Dihydrofolate reductase (Homo sapiens, UniProt P00374); assay: Inhibition of human DHFR using folic aid as substrate by spectrophotometric analysis
[23] = target: Voltage-gated inwardly rectifying potassium channel KCNH2 (Homo sapiens, UniProt Q12809); assay: Inhibition of human ERG in membranes incubated for 2 hrs by fluorescence polarization assay
Voltage-gated inwardly rectifying potassium channel KCNH2, sequence (Q12809 whole entry): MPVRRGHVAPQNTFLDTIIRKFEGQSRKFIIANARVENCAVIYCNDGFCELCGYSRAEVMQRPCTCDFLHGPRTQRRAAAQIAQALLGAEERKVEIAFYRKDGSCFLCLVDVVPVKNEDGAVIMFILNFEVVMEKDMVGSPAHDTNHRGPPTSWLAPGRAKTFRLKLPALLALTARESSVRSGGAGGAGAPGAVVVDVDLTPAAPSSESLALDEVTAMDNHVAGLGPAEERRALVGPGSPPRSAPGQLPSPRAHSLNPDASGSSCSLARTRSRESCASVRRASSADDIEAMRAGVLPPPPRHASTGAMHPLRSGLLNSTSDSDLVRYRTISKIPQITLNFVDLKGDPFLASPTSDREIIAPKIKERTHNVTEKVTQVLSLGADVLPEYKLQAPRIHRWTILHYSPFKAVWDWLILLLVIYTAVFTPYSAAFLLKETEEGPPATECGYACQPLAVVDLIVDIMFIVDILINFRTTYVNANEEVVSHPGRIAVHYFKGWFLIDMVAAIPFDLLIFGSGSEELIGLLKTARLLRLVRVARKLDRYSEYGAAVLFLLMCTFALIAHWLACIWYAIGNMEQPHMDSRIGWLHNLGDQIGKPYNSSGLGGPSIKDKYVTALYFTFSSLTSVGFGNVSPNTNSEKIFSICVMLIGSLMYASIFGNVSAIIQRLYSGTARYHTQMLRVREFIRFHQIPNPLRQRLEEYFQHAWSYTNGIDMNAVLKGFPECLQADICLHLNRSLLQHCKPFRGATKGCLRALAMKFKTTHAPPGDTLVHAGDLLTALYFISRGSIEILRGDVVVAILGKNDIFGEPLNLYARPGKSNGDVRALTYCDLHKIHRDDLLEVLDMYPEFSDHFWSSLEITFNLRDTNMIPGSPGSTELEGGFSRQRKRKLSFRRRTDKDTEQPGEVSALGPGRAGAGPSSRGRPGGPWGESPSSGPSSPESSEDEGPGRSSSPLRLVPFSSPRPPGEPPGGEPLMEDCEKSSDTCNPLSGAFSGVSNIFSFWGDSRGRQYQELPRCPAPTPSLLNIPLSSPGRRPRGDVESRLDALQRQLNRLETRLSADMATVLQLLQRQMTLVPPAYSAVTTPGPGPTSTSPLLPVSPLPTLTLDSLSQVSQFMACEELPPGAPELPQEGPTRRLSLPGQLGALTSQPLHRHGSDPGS

[24] = Solubility of compound in PBS incubated for 18 hrs by UV-visible spectroscopic analysis; type: physicochemical; conditions: buffer
[25] = Drug uptake in BALB/c mouse plasma at 1 mg/kg, iv administered as single dose through encapsulation in PLGA nanoparticles by HPLC analysis; type: ADME, organism-based; conditions: in vivo
[26] = Drug uptake in BALB/c mouse plasma at 1 mg/kg, po administered as single dose through encapsulation in PLGA nanoparticles by HPLC analysis; type: ADME, organism-based; conditions: in vivo
[27] = target: Aurora kinase B (Homo sapiens) (UniProt Q96GD4); assay: Inhibition of recombinant full-length human aurora B kinase expressed in baculovirus system using MBP as substrate at 10 uM incubated for 45 mins by ADP-glo kinase assay
Aurora kinase B (Homo sapiens), sequence (Q96GD4 whole entry): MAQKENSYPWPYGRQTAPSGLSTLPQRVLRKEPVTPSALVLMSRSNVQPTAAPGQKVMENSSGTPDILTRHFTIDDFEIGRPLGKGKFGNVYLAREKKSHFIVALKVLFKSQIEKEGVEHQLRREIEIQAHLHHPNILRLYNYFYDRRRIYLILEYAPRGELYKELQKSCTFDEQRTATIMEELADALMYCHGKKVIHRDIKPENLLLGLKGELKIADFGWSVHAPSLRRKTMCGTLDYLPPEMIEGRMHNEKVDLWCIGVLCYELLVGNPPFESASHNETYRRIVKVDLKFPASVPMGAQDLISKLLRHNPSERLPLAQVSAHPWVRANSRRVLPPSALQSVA

Leishmania infantum [28] = assay: Antiparasitic activity against Leishmania infantum MOM/MA67ITMAP263 amastigotes infected in human THP1 cells at 10 uM after 72 hrs by steady-glo luminescence assay; type: functional
Trypanosoma cruzi = assay: Antitrypanosomal activity against Trypanosoma cruzi Y trypomastigotes infected in human HG39 cells after 48 hrs by RT-PCR assay
Leishmania infantum [29] = assay: Antiparasitic activity against Leishmania infantum MOM/MA67ITMAP263 amastigotes infected in human THP1 cell after 72 hrs by steady-glo luminescence assay; type: functional, organism-based; conditions: MOM/MA67ITMAP263, THP-1, 72 h
THP-1 = assay: Cytotoxicity against human THP1 cells at 12.5 to 50 uM after in presence of MTX by MTT assay; type: cell-based; conditions: thp-1, 50 µM
CYP1A2 = CYP1A2 (Homo sapiens, UniProt P05177); assay: as §1; type: ADME
[30] = system: Trypanosoma brucei brucei; assay: Antitrypanosomal activity against Trypanosoma brucei brucei Lister 427 bloodstream forms assessed as maximum synergy coefficient at 1.25 after 72 hrs in presence of MTX by resazurin-based assay; type: functional

O=c1c(O)c(-c2ccc(O)cc2)oc2cc(O)ccc12 [RESOKAEMPFEROL]
Activity (WI-38): Non-Toxic | inhibition (Trypanosoma brucei [1]): 33% | CI [2]: >1.5 | inhibition [3]: inactive | Activity [4]: Active | EC50 [5]: 4.29 µM | CI [6]: >1.5 | selectivity ratio (in vitro): 4 | Activity (786-0): Non-Toxic | Activity (A549): Non-Toxic | inhibition (Leishmania mexicana [7]): < 25% | inhibition (Trypanosoma brucei [8]): < 25% | MNTC at 72 h [9]: 20 µM | inhibition (INH) (Cytochrome P450 1A2 [10]): Not Active | inhibition [11]: < 30%

C[C@@H]1O[C@@H](OC[C@H]2O[C@@H](Oc3c(-c4ccc(O)c(O)c4)oc4cc(O)cc(O)c4c3=O)[C@H](O)[C@@H](O)[C@@H]2O)[C@H](O)[C@H](O)[C@H]1O
inhibition (Trypanosoma brucei [12]): inactive | IC50 [5]: < 30 µM

O=c1c(O)c(-c2cccc(O)c2)oc2ccc(O)cc12
Drug uptake [13]: Not Active | MNTC at 72 h [14]: > 100 µM | Activity (WI-38): Non-Toxic | inhibition (Trypanosoma brucei [1]): 96% | EC50 [15]: 3.27 µM | IC50 (Cytochrome P450 2C19): > 10 µM | IC50 (Cytochrome P450 1A2 [16]): 6.1 µM | IC50 [17]: 4.3 µM | inhibition [3]: inactive | Activity [4]: Active | EC50 [5]: 7.56 µM | CI [6]: >1 | half-life [18]: 7.6 min | inhibition (Leishmania mexicana [19]): 86% | IC50 (Cytochrome P450 2D6): > 10 µM | selectivity ratio (in vitro): 7 | IC50 (Cytochrome P450 3A4): > 10 µM | Activity (786-0): Non-Toxic | IC50 (Cytochrome P450 2C9): > 10 µM | Activity (A549): Non-Toxic | Drug uptake [20]: Not Active | EC50 [21]: 5.7 µM | inhibition (Leishmania mexicana [7]): 42 to 43% | MNTC at 72 h [22]: > 100 µM | IC50 (Dihydrofolate reductase): 50 µM | inhibition (Trypanosoma brucei [8]): 42 to 43% | IC50 [23]: 99.3 µM | CC50 at 72 h [9]: 53 µM | inhibition (INH) (Cytochrome P450 1A2 [10]): Not Active | solubility [24]: Soluble | Drug uptake [25]: Not Active | Drug uptake [26]: Not Active

O=c1c(O)c(-c2ccc(O)c(O)c2)oc2cc(O)cc(O)c12
inhibition (Trypanosoma brucei [12]): inactive | IC50 [5]: < 30 µM

O=c1c(O)c(-c2cc(O)c(O)c(O)c2)oc2cc(O)ccc12 [ROBINETIN]
Activity (WI-38): Non-Toxic | inhibition (Trypanosoma brucei [1]): 85% | inhibition [27]: Active | Activity (Leishmania infantum [28]): 10% | inhibition [3]: inactive | EC50 [5]: 18 µM | selectivity ratio (in vitro): 5 | Activity (786-0): Non-Toxic | Activity (A549): Non-Toxic | inhibition (Leishmania mexicana [7]): < 25% | inhibition (Trypanosoma brucei [8]): < 25% | MNTC at 72 h [9]: 100 µM | inhibition [11]: < 30%

O=c1c(O)c(-c2ccc(O)c(O)c2)oc2cc(O)ccc12 [FISETIN]
Activity (WI-38): Non-Toxic | inhibition (Trypanosoma brucei [1]): 53% | inhibition [27]: Active | inhibition [3]: inactive | Activity (786-0): Non-Toxic | Activity (A549): Non-Toxic | inhibition (Leishmania mexicana [7]): < 25% | inhibition (Trypanosoma brucei [8]): < 25% | inhibition [11]: < 30%

COc1ccc2c(=O)c(O)c(-c3cc(OC)c(OC)c(OC)c3)oc2c1
Activity (WI-38): Non-Toxic | inhibition (Trypanosoma brucei [1]): inactive | Activity (Leishmania infantum [28]): 35% | selectivity ratio (in vitro): 17 | Activity (786-0): Non-Toxic | Activity (A549): Non-Toxic | MNTC at 72 h [9]: 20 µM | inhibition (INH) (Cytochrome P450 1A2 [10]): Not Active

COc1cccc(-c2oc3ccc(OC)cc3c(=O)c2O)c1
Activity (WI-38): Non-Toxic | inhibition (Trypanosoma brucei [1]): 4% | Activity [4]: Active | CI [6]: >1 | inhibition (Leishmania mexicana [19]): inactive | selectivity ratio (in vitro): 7 | Activity (786-0): Non-Toxic | Activity (A549): Non-Toxic | MNTC at 72 h [9]: 10 µM | inhibition (INH) (Cytochrome P450 1A2 [10]): Not Active

CC1CS(=O)(=O)CCN1/N=C/c1ccc([N+](=O)[O-])o1 (stereo not drawn) [NIFURTIMOX]
IC50 (Trypanosoma cruzi): 2.2 µM

CCCCCCCCCCCCCCCCOP(=O)([O-])OCC[N+](C)(C)C [MILTEFOSINE]
IC50 (Leishmania infantum [29]): 2.65 µM

COc1ccc(-c2oc3ccc(OC)cc3c(=O)c2O)cc1
Activity (WI-38): Non-Toxic | CI [2]: >1.5 | Activity [4]: Active | selectivity ratio (in vitro): 1 | Activity (786-0): Non-Toxic | Activity (A549): Non-Toxic | MNTC at 72 h [9]: 20 µM | Activity (THP-1): Non-Toxic | inhibition at 0.5 h, 10 µM (CYP1A2): 72% | CI [30]: 3.1
